Values of other authors in patent US6562243B2 (priority 2001, dated 2003).

System: Legionella

## [Ag] [silver]
  silver level that kills Legionella: 20 ppb
